Laboratory results reported in US20090098044A1, “SOLID PARTICLES FROM CONTROLLED DESTABILISATION OF MICROEMULSIONS” (Australian Nuclear Science and Technology Organisation, priority 2004, published 2009).

What was measured:
Type in all cases: physicochemical
[1] = Decomposition of doxorubicin at pH 7.4 versus pH<4
From the text: The decomposition rate of doxorubicin at physiological pH (pH 7.4) versus its decomposition rate at pH<4 makes analysis of the system difficult.

[2] = Decomposition of pure doxorubicin in PBS (pH 6.9/25° C.) at 37° C.; conditions: normal phosphate buffer
Solubility of the drug = assay: Solubility of the drug

stability of doxorubicin as a function of pH ([1]; pH<4 (pH ~3.4)): most stable at this pH
doxorubicin disappears ([2]; in 2 weeks): about 74%
half-life ([2]; phosphate buffer (PBS), pH 6.9, exponential decomposition during first ten days, read-out: half decay (T1/2) of doxorubicin (converted)): ~108 h
solubility of doxorubicin in acetone (Solubility of the drug; acetone): high solubility
solubility of doxorubicin in aqueous solutions (Solubility of the drug; aqueous solutions, orange precipitate seen after day 9): limited solubility
SMILES: COc1cccc2c1C(=O)c1c(O)c3c(c(O)c1C2=O)C[C@@](O)(C(=O)CO)C[C@@H]3O[C@H]1C[C@H](N)[C@H](O)[C@H](C)O1 [doxorubicin]
decomposition of doxorubicin at pH 7.4 compared with pH<4 ([1]; known concentration of doxorubicin, FIG. 44): increased decomposition at physiological pH
